Test results reported in article PMC7736581, “Activation of the IRE1 RNase through remodeling of the kinase front pocket by ATP-competitive ligands” (Nature Communications, 2020).

Assays:
Test in all cases: biochemical
[1] = molecular target: T1, PERK (Homo sapiens, UniProt Q9NZJ5); set-up: 33P incorporation kinase assay (Reaction Biology), myelin basic protein substrate; settings: 10 uM ATP
T1 construct: gene EIF2AK3
T1 sequence (Q9NZJ5 1-1116): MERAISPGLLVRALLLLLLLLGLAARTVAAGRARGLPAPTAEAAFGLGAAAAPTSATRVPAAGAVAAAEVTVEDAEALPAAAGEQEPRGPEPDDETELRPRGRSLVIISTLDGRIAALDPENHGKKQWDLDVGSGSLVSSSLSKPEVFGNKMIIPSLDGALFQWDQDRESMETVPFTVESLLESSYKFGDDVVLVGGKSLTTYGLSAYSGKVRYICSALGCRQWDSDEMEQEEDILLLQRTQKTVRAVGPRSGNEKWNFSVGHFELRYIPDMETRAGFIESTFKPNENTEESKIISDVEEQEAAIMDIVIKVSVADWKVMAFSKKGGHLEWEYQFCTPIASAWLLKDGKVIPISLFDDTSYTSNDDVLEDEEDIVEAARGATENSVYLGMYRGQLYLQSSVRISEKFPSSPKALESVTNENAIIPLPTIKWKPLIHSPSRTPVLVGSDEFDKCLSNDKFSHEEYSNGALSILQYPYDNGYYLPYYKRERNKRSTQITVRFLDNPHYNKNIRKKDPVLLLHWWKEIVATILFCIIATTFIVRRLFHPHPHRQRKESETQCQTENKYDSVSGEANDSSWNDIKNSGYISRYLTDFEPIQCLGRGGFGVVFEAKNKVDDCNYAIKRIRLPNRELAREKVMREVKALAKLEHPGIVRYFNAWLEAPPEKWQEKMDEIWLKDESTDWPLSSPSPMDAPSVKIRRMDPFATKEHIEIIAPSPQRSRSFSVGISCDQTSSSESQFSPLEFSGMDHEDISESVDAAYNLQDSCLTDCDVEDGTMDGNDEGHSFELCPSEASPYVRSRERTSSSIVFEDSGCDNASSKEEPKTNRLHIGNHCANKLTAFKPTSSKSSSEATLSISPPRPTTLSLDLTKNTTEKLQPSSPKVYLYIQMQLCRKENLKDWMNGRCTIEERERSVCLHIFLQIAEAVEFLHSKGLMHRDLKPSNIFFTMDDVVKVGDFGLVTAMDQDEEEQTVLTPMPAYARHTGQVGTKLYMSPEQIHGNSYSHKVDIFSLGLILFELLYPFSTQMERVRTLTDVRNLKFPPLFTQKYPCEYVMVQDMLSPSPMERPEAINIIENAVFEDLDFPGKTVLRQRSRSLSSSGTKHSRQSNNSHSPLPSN
From the text: We set out to identify allosteric activators of IRE1 RNase by screening internal compound libraries for binding to the kinase, using a published ATP-competitive TR-FRET assay. We then tested kinase binders to assess RNase modulation in an IRE1-specific kinetic RNA cleavage assay that uses the cytoplasmic construct IRE1-LKR (Q470-L977) (Supplementary Fig. 1a). […] Next, we tested these compounds in KMS-11 multiple myeloma cells, known to express functional IRE1 and strongly depend on the IRE1 pathway due to hyper-production of immunoglobulins in the ER[31]. We measured mRNA levels of XBP1s and the well-established RIDD target DGAT2[22] (Fig. 1c and Supplementary Fig. 1c, respectively) using a branched DNA (bDNA) assay. […] Importantly, neither G-9807 nor G-1749 inhibit PERK (Supplementary Table 1).

[2] = molecular target: T2, Tie2 (Homo sapiens, UniProt Q02763); set-up: Invitrogen kinase panel: Z'Lyte activity (ATP at Km) or LanthaScreen competitive ATP-site binding, percent inhibition
T2 construct: gene TEK

[3] = molecular target: T3, TAK1-TAB1 (Homo sapiens, UniProt O43318); set-up: Invitrogen kinase panel: Z'Lyte activity (ATP at Km) or LanthaScreen competitive ATP-site binding, percent inhibition
T3 construct: gene MAP3K7
T3 sequence (O43318 1-606): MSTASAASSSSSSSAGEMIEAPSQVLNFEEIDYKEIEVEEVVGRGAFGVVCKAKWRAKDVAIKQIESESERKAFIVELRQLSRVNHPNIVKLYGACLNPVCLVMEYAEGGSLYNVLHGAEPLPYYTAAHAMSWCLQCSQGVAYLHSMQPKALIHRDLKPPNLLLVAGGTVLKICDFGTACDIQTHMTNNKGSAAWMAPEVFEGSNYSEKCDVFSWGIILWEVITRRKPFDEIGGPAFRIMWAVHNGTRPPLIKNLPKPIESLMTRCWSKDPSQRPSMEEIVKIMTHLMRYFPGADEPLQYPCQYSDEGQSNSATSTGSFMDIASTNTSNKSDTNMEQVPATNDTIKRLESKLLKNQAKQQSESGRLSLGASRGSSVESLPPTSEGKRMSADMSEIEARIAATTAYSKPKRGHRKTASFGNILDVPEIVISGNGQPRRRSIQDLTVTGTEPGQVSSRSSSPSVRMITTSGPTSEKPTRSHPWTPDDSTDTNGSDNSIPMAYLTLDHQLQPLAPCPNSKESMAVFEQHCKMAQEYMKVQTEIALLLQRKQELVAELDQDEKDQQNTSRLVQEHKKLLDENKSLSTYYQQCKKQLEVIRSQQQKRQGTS
T3 sequence (Q15750 1-504 partner): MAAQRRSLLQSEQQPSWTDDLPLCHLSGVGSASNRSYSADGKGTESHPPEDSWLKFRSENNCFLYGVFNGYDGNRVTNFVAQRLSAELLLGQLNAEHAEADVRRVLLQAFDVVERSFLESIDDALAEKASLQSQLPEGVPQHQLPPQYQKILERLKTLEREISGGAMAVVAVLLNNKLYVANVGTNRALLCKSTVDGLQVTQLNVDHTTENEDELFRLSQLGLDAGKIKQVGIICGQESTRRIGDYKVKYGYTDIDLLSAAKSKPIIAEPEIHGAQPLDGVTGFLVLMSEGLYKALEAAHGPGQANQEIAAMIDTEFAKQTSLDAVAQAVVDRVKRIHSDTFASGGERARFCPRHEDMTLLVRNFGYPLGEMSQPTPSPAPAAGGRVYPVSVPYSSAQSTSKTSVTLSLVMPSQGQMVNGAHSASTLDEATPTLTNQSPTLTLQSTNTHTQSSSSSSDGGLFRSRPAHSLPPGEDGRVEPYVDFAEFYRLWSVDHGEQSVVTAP

[4] = molecular target: TYK2 (Homo sapiens, UniProt P29597); set-up: Invitrogen kinase panel: Z'Lyte activity (ATP at Km) or LanthaScreen competitive ATP-site binding, percent inhibition
TYK2, sequence (P29597 whole entry): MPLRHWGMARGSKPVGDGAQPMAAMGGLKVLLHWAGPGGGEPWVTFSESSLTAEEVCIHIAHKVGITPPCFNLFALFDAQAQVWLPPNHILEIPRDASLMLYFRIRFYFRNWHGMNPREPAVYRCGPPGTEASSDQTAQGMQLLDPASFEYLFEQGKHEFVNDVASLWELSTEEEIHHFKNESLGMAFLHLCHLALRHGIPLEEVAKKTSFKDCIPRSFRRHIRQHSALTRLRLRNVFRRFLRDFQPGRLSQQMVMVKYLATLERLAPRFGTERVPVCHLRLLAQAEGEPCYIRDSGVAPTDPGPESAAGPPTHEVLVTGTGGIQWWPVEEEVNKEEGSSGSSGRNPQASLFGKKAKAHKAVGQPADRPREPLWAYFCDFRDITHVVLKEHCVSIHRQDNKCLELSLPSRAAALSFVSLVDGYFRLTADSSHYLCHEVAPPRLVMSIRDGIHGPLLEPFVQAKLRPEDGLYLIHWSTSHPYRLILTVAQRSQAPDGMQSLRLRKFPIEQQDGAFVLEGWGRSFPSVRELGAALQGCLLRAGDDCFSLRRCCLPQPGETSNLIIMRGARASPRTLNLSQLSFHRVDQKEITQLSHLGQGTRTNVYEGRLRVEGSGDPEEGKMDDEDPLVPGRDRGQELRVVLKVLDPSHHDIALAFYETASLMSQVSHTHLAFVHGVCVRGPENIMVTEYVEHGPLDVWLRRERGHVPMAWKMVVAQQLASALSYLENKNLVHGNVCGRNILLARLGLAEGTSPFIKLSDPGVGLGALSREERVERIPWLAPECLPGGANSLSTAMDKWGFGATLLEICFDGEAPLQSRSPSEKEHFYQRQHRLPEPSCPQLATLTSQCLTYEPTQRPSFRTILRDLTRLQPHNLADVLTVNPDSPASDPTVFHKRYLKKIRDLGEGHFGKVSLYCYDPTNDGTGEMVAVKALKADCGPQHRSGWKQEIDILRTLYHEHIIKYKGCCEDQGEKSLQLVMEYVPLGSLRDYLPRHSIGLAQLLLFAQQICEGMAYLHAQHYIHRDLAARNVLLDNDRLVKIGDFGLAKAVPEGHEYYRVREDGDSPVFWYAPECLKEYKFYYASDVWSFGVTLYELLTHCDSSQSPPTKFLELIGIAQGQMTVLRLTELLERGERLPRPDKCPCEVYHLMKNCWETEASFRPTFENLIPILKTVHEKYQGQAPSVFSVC

T2 sequence (Q02763 whole entry): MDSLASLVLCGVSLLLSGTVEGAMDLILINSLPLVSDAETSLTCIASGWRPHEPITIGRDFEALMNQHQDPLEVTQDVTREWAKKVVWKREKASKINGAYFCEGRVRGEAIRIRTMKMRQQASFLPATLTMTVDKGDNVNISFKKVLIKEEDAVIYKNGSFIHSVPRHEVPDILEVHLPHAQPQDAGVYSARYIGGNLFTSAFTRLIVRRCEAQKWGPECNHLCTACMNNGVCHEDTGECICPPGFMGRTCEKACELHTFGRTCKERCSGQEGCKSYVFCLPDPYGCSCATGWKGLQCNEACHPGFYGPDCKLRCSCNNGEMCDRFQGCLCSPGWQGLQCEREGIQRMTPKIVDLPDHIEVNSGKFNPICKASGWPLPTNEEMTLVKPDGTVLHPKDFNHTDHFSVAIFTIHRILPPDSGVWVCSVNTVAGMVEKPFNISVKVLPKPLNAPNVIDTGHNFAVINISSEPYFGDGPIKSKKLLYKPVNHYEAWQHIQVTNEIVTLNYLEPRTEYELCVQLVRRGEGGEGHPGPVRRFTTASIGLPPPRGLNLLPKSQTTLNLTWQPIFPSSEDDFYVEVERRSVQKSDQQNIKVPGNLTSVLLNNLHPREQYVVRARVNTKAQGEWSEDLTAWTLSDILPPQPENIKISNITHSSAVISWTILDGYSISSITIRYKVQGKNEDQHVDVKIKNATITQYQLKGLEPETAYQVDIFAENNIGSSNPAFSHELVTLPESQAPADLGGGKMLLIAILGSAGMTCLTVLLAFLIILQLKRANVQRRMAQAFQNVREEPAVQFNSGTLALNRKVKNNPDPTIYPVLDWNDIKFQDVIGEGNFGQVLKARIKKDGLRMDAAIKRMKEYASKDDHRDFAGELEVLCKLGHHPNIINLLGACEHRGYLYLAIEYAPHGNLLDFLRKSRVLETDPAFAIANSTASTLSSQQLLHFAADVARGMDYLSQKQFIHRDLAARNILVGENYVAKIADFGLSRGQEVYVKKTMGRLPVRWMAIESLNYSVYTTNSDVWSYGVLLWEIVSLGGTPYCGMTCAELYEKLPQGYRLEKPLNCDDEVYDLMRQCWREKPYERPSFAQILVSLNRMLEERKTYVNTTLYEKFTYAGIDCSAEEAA

Question: How did the inhibition at 1 µM [1] turn out when Cc1ccc2c(NS(=O)(=O)c3ccccc3Cl)cccc2c1Oc1ncccc1-c1ccnc(N[C@H]2CCCNC2)n1 [AMG-18] was run?
Answer: 5.4%

Question: For CCOC(=O)Nc1cccc2c(Oc3ncccc3-c3ccnc(N[C@H]4CCCNC4)n3)c(C)ccc12 [G-1749], which inhibition at 1 µM [1] is on record?
Answer: 9.9%

Question: What about the inhibition at 1 µM [2] of the same molecule?
Answer: 26%

Question: What about the inhibition at 1 µM [3] of the same molecule?
Answer: 23%

Question: What about the inhibition at 1 µM [4] of the same molecule?
Answer: -3%

Question: What does the source list for CC#CC(=O)Nc1cccc2c(Oc3ncccc3-c3ccnc(N[C@H]4CCCNC4)n3)c(C)ccc12 [G-7658]?
Answer: inhibition at 1 µM [2]: 12.5%; inhibition at 1 µM [3]: -2.5%; inhibition at 1 µM [4]: -2%

Question: How did the inhibition at 1 µM [1] turn out when O=c1cc(-c2n[nH]c3ncc(-c4c(F)cccc4F)cc23)nc(N2CCC(O)CC2)[nH]1 [G-9807] was run?
Answer: 4.5%

Question: And the inhibition at 1 µM [2]?
Answer: 95.9%

Question: And the inhibition at 1 µM [3]?
Answer: 94.3%

Question: What about the inhibition at 1 µM [4] of the same molecule?
Answer: 84.5%
